{"source": "patent US20120045515A1", "about": "“HOLLOW SILICA PARTICLE WITH A POLYMER THEREON” (priority 2009, published 2012)", "key": {"U-87 MG cells": {"test_system": "U-87 MG cells", "assay": "In vitro cytotoxicity, MTT assay, in U-87 MG cells", "format": "cell-based", "settings": "Homo sapiens, incubation for 72 h", "method": "(§1) Cytotoxicity of pure PTX, PEG-g-hollow silica vesicles, and PTX loaded PEG-g-hollow silica vesicles was evaluated in MCF-7 cell lines and U-87 MG cell lines. Viability of the cells was assessed by the standard thiazolyl blue [3-(4,5-dimethyliazolyl-2)-2,5-diphenyl tetrazolium bromide] (MTT) assay. This colorimetric assay allows determination of the number of viable cells through the metabolic activity of the cells.\n(§2) The cancer cells were seeded in 96-well plates with a seeding density 10,000 cells/well and were cultured in DMEM supplemented with 10% FBS and 1% penicillin/streptomycin solution in an incubator at 37° C., 5% CO2, and 95% relative humidity. The cells were allowed to adhere to the well bottom upon overnight incubation. Then the medium was replaced with the sample solutions of different concentrations. Meanwhile, wells containing only cell culture medium were prepared as untreated controls. At the predetermined time, the medium containing samples was aspirated and the wells were washed with 1×PBS solution for two times to removed non-internalized sample. […] The absorbance intensity of the solution was then quantified spectrophotometrically using a microplate reader (TECAN SpectraFluor Plus) at 570 nm. […]\n(§3) where Abssample was the absorbance for the cells treated with the samples, while Abscontrol was the absorbance for the untreated control cells. […]"}, "[1]": {"assay": "Saturated solubility of PTX in methanol", "format": "physicochemical", "settings": "organic solvent or mixture, saturated solution in methanol"}, "[2]": {"assay": "Release profile of paclitaxel by dialysis in 1×PBS buffer at 37° C., HPLC", "format": "physicochemical", "settings": "after 330 h, 1×PBS buffer solution", "method": "In a typical process, 0.7 mg of paclitaxel loaded PEG-graft-hollow silica was dispersed in 3 ml of 1×PBS buffer solution under ultrasonication for 2 h at a temperature below 30° C. The solution was transferred into a dialysis tube with a molecular weight cutting of 10 000. The dialysis tube was placed into a conical flask containing 40 ml of 1×PBS buffer solution. The conical flask was kept in a water bath at 37° C. and was stirred at 100 rpm. The outside buffer solution was exchanged with a fresh buffer solution at a predetermined time interval to maintain a sink condition. The released paclitaxel was extracted from the drawn buffer solution using 4 ml of dichloromethane. After shaking and setting down, the dichloromethane solution was collected. After chloromethane was evaporated at room temperature, the solid reconstituted in 2 mL of acetonitrile/water (50:50; v/v) for HPLC measurement to determine PTX amounts.\nTo measure the release profile of free PTX, 2 mg of PTX was firstly dissolved in 4 mL methanol to get a solution of a concentration of 0.5 mg/mL. After ultrasonication for 40 min, 0.4 mL of the solution was taken out and was dried by evaporating methanol. The solid was dissolved in 3 mL of 1×PBS solution (pH 7.4), and the release profile was monitored."}, "MCF-7 cells": {"test_system": "MCF-7 cells", "assay": "In vitro cytotoxicity, MTT assay, in MCF-7 cells", "format": "cell-based", "settings": "Homo sapiens, MCF7, incubation for 72 h", "method": "as §1, §2, §3"}}}
{"compound": "CC(=O)O[C@H]1C(=O)[C@@]2(C)[C@H]([C@H](OC(=O)c3ccccc3)[C@]3(O)C[C@H](OC(=O)[C@H](O)[C@@H](NC(=O)c4ccccc4)c4ccccc4)C(C)=C1C3(C)C)[C@]1(OC(C)=O)CO[C@@H]1C[C@@H]2O", "note": "[free PTX, paclitaxel]", "values": [{"measurement": "IC50", "setting": "U-87 MG cells", "value": 0.073, "unit": "µg/mL"}, {"measurement": "solubility", "setting": "[1]", "value": 50, "unit": "mg/mL"}, {"measurement": "PTX released", "setting": "[2]", "value": 5, "unit": "%"}, {"measurement": "IC50", "setting": "MCF-7 cells", "value": 0.1, "unit": "µg/mL"}]}
